# Test results published in patent US20080287662A1, “Balanites Aegyptiaca Saponins and Uses Thereof” (priority 2005, published 2008).
# Marks after values point to notes of the source that are not given here.
# Key:
# [1] = Vitamin C delivery through isolated rat skin; format: in vitro ADME; conditions: 25° C., 60% relative humidity
# Method: The effect of Balanites mesocarp saponin preparation on delivery of vitamin C through the skin was tested using isolated rat skin system. 100 μl of saponin nanovesicles containing encapsulated vitamin C (2 mg) were prepared from saponin extracted from Balanites mesocarp by the procedure A described in Example 5(i) above. 15 μl of the preparation were loaded on an isolated rat skin in three replicates. The treatments were applied in a controlled environment (25° C. and 60% relative humidity) and incubated for 30 or 60 min. The solution delivered through the isolated skin was tested using an HPLC system for detecting the level of vitamin C corresponding to a standard peak of vitamin C.
# [2] = Penetration rate of 14C-labeled 2,4-D across isolated leaf cuticle membranes with saponin adjuvant; parameters: species or system Citrus grandis; conditions: 1% (w/v) adjuvant, 30° C. and 30% RH
# [3] = test system: Aedes aegypti mosquito larvae; test: Effect of purified main mesocarp saponin on Aedes aegypti larvae, pupa and adults; format: in vivo
# Method: Eggs of laboratory-grown Aedes aegypti were hatched in tap water in a growth chamber with a 16-hour photoperiod, at a temperature of 25±3° C. Twenty to twenty five larvae at the late 3rd and early 4th instars were placed into 150-ml disposable plastic cups containing 100 ml of tap water together with water-soluble saponin solutions of various concentrations. During the experiments, treated and control (0 mg/L saponin) cups were examined after 2, 4, 9 and 11 days and number of alive larvae or adults were counted. The data are presented in percentage together with an analysis of variance using the Tukey-Kramer HSD test (SAS's JMP software) at the 0.01 level of significance.
# Pythium aphanidermatum = test: Mycelial colony growth inhibition in vitro; format: cell-based
# Method: Cultures of Pythium aphanindermatum were isolated from plant species showing Pythium symptoms. The isolate was placed in potato dextrose agar (PDA, Difco, Detroit, Mich., USA) supplemented with 100 ppm of streptomycin and incubated in the dark at 27° C. for 2 days. The colony of Pythium was identified visually and microscopically and sub-cultured on PDA without antibiotics as described by Tsror et al (2001).
# For fungal growth inhibition measurements five concentrations of Balanites mesocarp saponin (ME) preparation (0.1, 0.5, 1.0, 2.0 and 4.0% w/v) and two concentrations of Metalaxyl-10 (a systemic benzenoid fungicide, 1 and 5 ppm as positive control) were added in separate Erlenmeyer flasks containing sterilized (121° C., 2 atm, 20 min) PDA, and mixed properly. Samples of PDA containing Balanites mesocarp saponin preparation and Metalaxyl-10 (15 ml) were poured into sterilized petri dishes separately and allowed to solidify. 5 mm in diameter agar plug of the fungal isolate was placed in the center of each plate. The plates were incubated at 27° C. (10 plates per treatment). The colony diameter of the mycelial growth was measured after 24 and 48 h and the inhibitory activity of each treatment was expressed as the growth inhibition percentage as compared to the negative control (0% ME preparation) using the formula: Growth inhibition percentage=[100-(Treatment growth/Control growth*100)].
# Escherichia coli = test: Bacterial growth in LB (OD660); format: cell-based
# Method: Standard Luria Broth solution (LB) was prepared using […] yeast extract, 10 mg NaCl and 10 mg Typtone per ml of DDW. A small portion of the Escherichia coil inoculum (LMC1492 strain, obtained from the Life Sciences Department of the Ben-Gurion University) was added to the LB solution in a sterilized Erlenmeyer and inoculated in a rotary water bath incubator at 250 rpm and 37° C. The tested extracts were first prepared in 5% in LB solution and used as stock solution for further dilution. Lower concentrations were obtained by mixing this stock solution in the required ratios with plain LB solution. The extract containing solution of the required concentrations were prepared in 10/140 mm glass test tubes in volumes of 1.8 ml each and incubated in a rotary water bath incubator (Gyvotory-676, New Brunswick Scientific Co. Inc, NY) at 250 rpm and 37° C.
# [4] = test system: mung bean seeds and seedlings; test: Mung bean germination, growth and development under saline water irrigation; format: in vivo; parameters: key to Germination (4 days): ++++ more advanced seedling; typical germination using tap water +++ (1 cm height with two leave starting to be expended); ++ less advanced seedling; + not germinated seedling; key to Foliage (14 days): aaaa more elongated seedlings; Typical mung bean foliage development 14 days after germination using tap water aaa (~10 cm seedling with fully expanded two leave and abscised cotyledons); aa less elongated seedlings; a dwarf seedling; key to Root: bbbb more elongated and branched roots; Typical mung bean root system 14 days after germination using tap water bbb (~6 cm well branched roots); bb less elongated roots; b short and necrotic root system; conditions: for Root: 14 days after germination
# Method: Addition of Balanites mesocarp extract (ME) saponins in moderate concentration of […] to the irrigation saline water stimulated the germination and development of mung bean seeds in comparison to control. It also stimulated the germination of the seeds in comparison to control and to saline treatments. The effect on the foliage and the roots of the treated mung bean seedlings corresponded to the effect on the germination. These effects are directly related to the effect of Balanites mesocarp saponin treatment on water uptake by the mung bean seeds and germinated seedlings.
# mung bean cuttings = test: Rooting of mung bean cuttings; format: in vivo; conditions: IBA 100 μM, saponins 100 ppm; rooting assessed seven days
# Method: This effect was increased as saponin concentration increased up to 500 ppm for Balanites mesocarp extract saponins and 50 ppm for Balanites root extract saponins, and up to 100 ppm for Quillaja saponaria bark extract saponins. The treatment solution was replaced by fresh water after 24 h and the rooting was assessed 10 days after the initiation of the experiment. The stimulating effect of saponins on root formation may be related to their hormone-like effect, but their effect on root elongation seems to be mainly due to their influence on increase of water uptake. The enhancing effect of saponins on rooting of mung bean cuttings when applied together with the synthetic plant hormone indole-3-butyric acid (IBA) is shown in Table 17. […] Similar, but weaker, enhancing effect was found with Quillaja bark extract saponins (the treatment solution was replaced by fresh water after 24 h and the rooting was assessed seven days after the initiation of the experiment).
compound,measurement,setting,value
"O=C1O[C@H]([C@@H](O)CO)C(O)=C1O [Vitamin C, ascorbic acid]",Vitamin C level in skin,[1]; 30 minutes incubation,259 ± 109 ng/cm^2 skin surface area
same,Vitamin C level in skin,[1]; 60 minutes incubation,326 ± 131 ng/cm^2 skin surface area
Triton X-100,Factor increase (times) of penetration rate vs DDW,[2],18.6 times
same,"Penetration rate of 2,4-D (^14C)",[2],11.00 × 10^−5 a h^−1
same,Factor increase (times) of penetration rate vs DDW,[2]; listed as Triton,19.1 times
same,"Penetration rate of 2,4-D (^14C)",[2]; listed as Triton,0.00011 h⁻¹
"CC(CCC1(O)O[C@H]2C[C@H]3[C@@H]4CC=C5C[C@@H](O[C@@H]6O[C@H](CO)[C@@H](O[C@@H]7O[C@H](CO)[C@@H](O)[C@H](O)[C@H]7O)[C@H](O)[C@H]6O[C@@H]6O[C@@H](C)[C@H](O)[C@@H](O)[C@H]6O)CC[C@]5(C)[C@H]4CC[C@]3(C)[C@H]2[C@@H]1C)CO[C@@H]1O[C@H](CO)[C@@H](O)[C@H](O)[C@H]1O (stereo partly drawn) [26-(O-β-D-glucopyranosyl)-3β,22,26-trihydroxyfurost-5-ene 3-O-β-D-glucopyranosyl-(1→4)-[α-L-rhamnopyranosyl-(1→2)]-β-D-glucopyranoside]",% adults,"[3]; 10 ppm, day 0",0%
same,% dead larvae,"[3]; 10 ppm, day 0",0%
same,% pupa,"[3]; 10 ppm, day 0",0%
same,% adults,"[3]; 10 ppm, day 2",0%
same,% dead larvae,"[3]; 10 ppm, day 2",0 d %
same,% pupa,"[3]; 10 ppm, day 2",0%
same,% adults,"[3]; 10 ppm, day 4",0%
same,% dead larvae,"[3]; 10 ppm, day 4",0 d %
same,% pupa,"[3]; 10 ppm, day 4",41 ab %
same,% adults,"[3]; 10 ppm, day 9",41 bc %
same,% dead larvae,"[3]; 10 ppm, day 9",0 d %
same,% pupa,"[3]; 10 ppm, day 9",0 b %
same,% adults,"[3]; 10 ppm, day 11",87 a %
same,% dead larvae,"[3]; 10 ppm, day 11",1.25 d %
same,% pupa,"[3]; 10 ppm, day 11",0%
same,% adults,"[3]; 100 ppm, day 0",0%
same,% dead larvae,"[3]; 100 ppm, day 0",0%
same,% pupa,"[3]; 100 ppm, day 0",0%
same,% adults,"[3]; 100 ppm, day 2",0%
same,% dead larvae,"[3]; 100 ppm, day 2",0 d %
same,% pupa,"[3]; 100 ppm, day 2",0%
same,% adults,"[3]; 100 ppm, day 4",0%
same,% dead larvae,"[3]; 100 ppm, day 4",0 d %
same,% pupa,"[3]; 100 ppm, day 4",45 a %
same,% adults,"[3]; 100 ppm, day 9",70 a %
same,% dead larvae,"[3]; 100 ppm, day 9",6.25 d %
same,% pupa,"[3]; 100 ppm, day 9",0 b %
same,% adults,"[3]; 100 ppm, day 11",85 a %
same,% dead larvae,"[3]; 100 ppm, day 11",6.25 cd %
same,% pupa,"[3]; 100 ppm, day 11",0%
same,% adults,"[3]; 300 ppm, day 0",0%
same,% dead larvae,"[3]; 300 ppm, day 0",0%
same,% pupa,"[3]; 300 ppm, day 0",0%
same,% adults,"[3]; 300 ppm, day 2",0%
same,% dead larvae,"[3]; 300 ppm, day 2",50 c %
same,% pupa,"[3]; 300 ppm, day 2",0%
same,% adults,"[3]; 300 ppm, day 4",0%
same,% dead larvae,"[3]; 300 ppm, day 4",50 c %
same,% pupa,"[3]; 300 ppm, day 4",15 bc %
same,% adults,"[3]; 300 ppm, day 9",15 d %
same,% dead larvae,"[3]; 300 ppm, day 9",50 c %
same,% pupa,"[3]; 300 ppm, day 9",33.25 a %
same,% adults,"[3]; 300 ppm, day 11",50 b %
same,% dead larvae,"[3]; 300 ppm, day 11",48.75 bc %
same,% pupa,"[3]; 300 ppm, day 11",0%
same,% adults,"[3]; 500 ppm, day 0",0%
same,% dead larvae,"[3]; 500 ppm, day 0",0%
same,% pupa,"[3]; 500 ppm, day 0",0%
same,% adults,"[3]; 500 ppm, day 2",0%
same,% dead larvae,"[3]; 500 ppm, day 2",77.5 b %
same,% pupa,"[3]; 500 ppm, day 2",0%
same,% adults,"[3]; 500 ppm, day 4",0%
same,% dead larvae,"[3]; 500 ppm, day 4",78.75 b %
same,% pupa,"[3]; 500 ppm, day 4",9.5 c %
same,% adults,"[3]; 500 ppm, day 9",20 cd %
same,% dead larvae,"[3]; 500 ppm, day 9",78.25 b %
same,% pupa,"[3]; 500 ppm, day 9",1.75 b %
same,% adults,"[3]; 500 ppm, day 11",22.5 c %
same,% dead larvae,"[3]; 500 ppm, day 11",78.25 ab %
same,% pupa,"[3]; 500 ppm, day 11",0%
same,% adults,"[3]; 800 ppm, day 0",0%
same,% dead larvae,"[3]; 800 ppm, day 0",0%
same,% pupa,"[3]; 800 ppm, day 0",0%
same,% adults,"[3]; 800 ppm, day 2",0%
same,% dead larvae,"[3]; 800 ppm, day 2",95 a %
same,% pupa,"[3]; 800 ppm, day 2",0%
same,% adults,"[3]; 800 ppm, day 4",0%
same,% dead larvae,"[3]; 800 ppm, day 4",95 a %
same,% pupa,"[3]; 800 ppm, day 4",1.75 c %
same,% adults,"[3]; 800 ppm, day 9",0 d %
same,% dead larvae,"[3]; 800 ppm, day 9",93.75 a %
same,% pupa,"[3]; 800 ppm, day 9",0 b %
same,% adults,"[3]; 800 ppm, day 11",5 c %
same,% dead larvae,"[3]; 800 ppm, day 11",94.25 a %
same,% pupa,"[3]; 800 ppm, day 11",0%
same,% adults,"[3]; 1000 ppm, day 0",0%
same,% dead larvae,"[3]; 1000 ppm, day 0",0%
same,% pupa,"[3]; 1000 ppm, day 0",0%
same,% adults,"[3]; 1000 ppm, day 2",0%
same,% dead larvae,"[3]; 1000 ppm, day 2",90 a %
same,% pupa,"[3]; 1000 ppm, day 2",0%
same,% adults,"[3]; 1000 ppm, day 4",0%
same,% dead larvae,"[3]; 1000 ppm, day 4",94 a %
same,% pupa,"[3]; 1000 ppm, day 4",3.75 c %
same,% adults,"[3]; 1000 ppm, day 9",3.75 d %
same,% dead larvae,"[3]; 1000 ppm, day 9",93.75 a %
same,% pupa,"[3]; 1000 ppm, day 9",0 b %
same,% adults,"[3]; 1000 ppm, day 11",3.75 c %
same,% dead larvae,"[3]; 1000 ppm, day 11",96.25 a %
same,% pupa,"[3]; 1000 ppm, day 11",0%
same,% Growth inhibition,"Pythium aphanidermatum; 0.1% w/v, 24 h",4.29 ± 1.50 d %
same,% Growth inhibition,"Pythium aphanidermatum; 0.1% w/v, 48 h",1.00 ± 0.01 e %
same,% Growth inhibition,"Pythium aphanidermatum; 0.5% w/v, 24 h",13.96 ± 3.21 d %
same,% Growth inhibition,"Pythium aphanidermatum; 0.5% w/v, 48 h",5.35 ± 1.32 e %
same,% Growth inhibition,"Pythium aphanidermatum; 1.0% w/v, 24 h",66.39 ± 3.52 c %
same,% Growth inhibition,"Pythium aphanidermatum; 1.0% w/v, 48 h",26.01 ± 2.95 c %
same,% Growth inhibition,"Pythium aphanidermatum; 2.0% w/v, 24 h",81.96 ± 1.30 b %
same,% Growth inhibition,"Pythium aphanidermatum; 2.0% w/v, 48 h",70.87 ± 2.57 b %
same,% Growth inhibition,"Pythium aphanidermatum; 4.0% w/v, 24 h",82.47 ± 1.30 b %
same,% Growth inhibition,"Pythium aphanidermatum; 4.0% w/v, 48 h",80.01 ± 0.42 b %
same,growth inhibition,Escherichia coli; 1.0% (w/v),33.3%
same,concentration up to which bacterial growth was increased,Escherichia coli; series 0.01-1.0% w/v,0.5 % (w/v)
[Cl-].[Na+] [NaCl],Foliage (14 days),[4]; 75 mM,aa
same,Germination (4 days),[4]; 75 mM,++
same,Root,[4]; 75 mM,bbb
same,Foliage (14 days),[4]; 150 mM,a
same,Germination (4 days),[4]; 150 mM,+
same,Root,[4]; 150 mM,bb
"O=C(O)CCCc1c[nH]c2ccccc12 [IBA, indole-3-butyric acid]",Average root length,mung bean cuttings,10.1 ± 0.4^cd mm
same,Number of roots per cutting,mung bean cuttings,28.3 ± 1.3^c
